According to patent publication US11478466B2, “Small molecule promoting osteoblast differentiation” (Cornell University, priority 2019, dated 2022):
Where two headings read alike, the source gives them in different places.

Experiments:
[1] = test system: alkaline phosphatase (ALP); details: for Fluo. Z Score: SAR of library and proprietary analogs, AttoPhos assay; for RFU Score Threshold ≥ 800 / Fluorescence Z Score Threshold ≥ 10 / NPA Score Threshold ≥ 5.0 (normalized percent activation): primary screen, C2C12, 4 days; for RFU Score Threshold ≥ 800 / Fluorescence Z Score Threshold ≥ 10 / NPA Score Threshold ≥ 5.0 (normalized percent activation) / RFU Score (10 μM): 10 μM; for RFU Score Threshold ≥ 800: Ex 450/Em 580 nm, rank in brackets not taken; for Fluorescence Z Score Threshold ≥ 10: Z score on DMSO control wells; for NPA Score Threshold ≥ 5.0 (normalized percent activation): normalized against rhBMP4 positive and DMSO negative controls; for RFU Score (10 μM): 154-analog library, C2C12, duplicate
Description: (§1) To identify small-molecule activators of osteoblast differentiation, we measured ALP activity using a fluorescent emission assay as a reporter for enzymatic digestion of ALP substrate in lysates derived from C2C12 myoblasts. […] Therefore, before screening, the assay was calibrated using recombinant human BMP4 protein as a positive control. Compounds were robotically deposited onto 384-well plates and then overlaid by C2C12 cells for a 4-day culture period, followed by lysis and fluorescent substrate assays (FIG. 1A; Table 1). To ensure uniformity, C2C12 cells were maintained in normal culture medium containing 10% fetal bovine serum, and lysis and substrate addition achieved using a microplate multidrop device. The primary screen (Table 2) encompassed greater than 47,000 small molecules tested at a final concentration of 10 μM.
(§2) For the primary screen, library compounds were distributed onto 384-well microplates (Greiner Bio-One 781091) at a final concentration of 10 μM in culture medium using a Perkin Elmer Janus automated workstation and WinPrep Version 4.8.3.315. Positive (rhBMP4, 1 ng/ml, R&D Systems) and negative controls (DMSO, 0.2%) were manually added to each plate by multichannel pipet. C2C12 cells were seeded onto compounds and controls at a density of 2000/well using a Thermo Multidrop Combi reagent dispenser and cultured for 4 days at 37° C., 5% CO2. Culture medium was aspirated using a BioTek EL406 plate washer and cells were lysed in RIPA buffer (Millipore 20-188) at ambient temperature for 10 minutes. 10 μl fluorescent alkaline phosphatase substrate (AttoPhos, Promega S1000) was added to lysates and incubated an additional 10 minutes before measuring the fluorescence (Excitation 450 nm/Emission 580 nm) on a BioTek Synergy Neo2 stacking microplate reader. Plates were processed and relative fluorescence raw values measured in stacks of 10-20. The data were processed using Collaborative Drug Discovery web-based software (CDD Vault) to determine Z score calculated on DMSO control wells and percent activation normalized against positive and negative controls (NPA). Cherry-picked hit candidates were re-tested in concentration response experiments, from which 4 candidates were chosen and purchased for further testing from either ChemBridge or Enamine, based on availability.
(§3) We also purchased a library of 154 structural chemical analogs assembled by ChemBridge Corp. from available screening library compounds.

[2] = test system: alkaline phosphatase (ALP); assay: cells; details: Mus musculus; for EC50: C2C12; for activation at 10 µM: C2C12, 96 h
Description: as §1, §2, §3

[3] = read-out: NPA Score Threshold ≥ 5.0 (normalized percent activation)

Row | Compound | RFU Score Threshold ≥ 800 [1] | Fluorescence Z Score Threshold ≥ 10 [1] | NPA Score Threshold ≥ 5.0 (normalized percent activation) [1] | further results
1 | O=C(Nc1ccc(O)cc1)c1cc2cc(Cl)ccc2[nH]c1=O [BT351] |  |  |  | Fluo. Z Score ([1]; C2C12): 1.48 ± 1.26; EC50 [2]: 20.9 µM
2 | CC1(C)OB(c2c(C(=O)O)c(=O)[nH]c3ccc(Cl)cc23)OC1(C)C [BT353] |  |  |  | Fluo. Z Score ([1]; C2C12): 3.15 ± 0.34; EC50 [2]: 5.31 µM
3 | c1ccc2c(c1)nc(NC1CCCC1)c1nncn12 [RU-0007138] | Below Threshold | 17.92 (10) | Below Threshold | 
4 | COC(=O)c1ccc(NC(=O)c2c3c(nn2C2CCS(=O)(=O)C2)CCC3)cc1 (stereo not shown) [RU-0159762] | 855 (22) | 21.33 (6) | Below Threshold | 
5 | CC(C)N1CCC(SCc2ccc(F)cc2C#N)C1=O (stereo not shown) [RU-0201425] | Below Threshold | Below Threshold |  | activation at 10 µM [2, 3]: 5.69%
6 | CC1(C)C(=O)NCCN1C(=O)/C=C(/c1ccc(Cl)cc1)C(F)(F)F [RU-0213635] | 1170 (5) | 15.00 (14) | Below Threshold | 
7 | Cc1cc(C(=O)NC2(C#N)CC2)ccc1NC(=O)CC(C)C [RU-0213672] | 1040 (9) | 12.15 (20) | Below Threshold | 
8 | O=C(NC1CCN(c2ccc(F)cc2)CC1)N(CC1CCOC1)C1CC1 (stereo not shown) [RU-0219256] | Below Threshold | Below Threshold |  | activation at 10 µM [2, 3]: 5.69%
9 | CCCN(C)CC1CCN(C(C)C(=O)Nc2ccc(C(F)(F)F)cc2)C1 (stereo not shown) [RU-0219355] | 819 (28) | Below Threshold |  | activation at 10 µM [2, 3]: 6.14%
10 | Cc1cc(C)c2[nH]c(=O)c(-c3c(-c4ccccc4)ncn3CCCO)cc2c1 [RU-0220396] |  |  |  | Fluo. Z Score ([1]; C2C12): −0.3 ± 0.20; EC50 [2]: 2.63 µM
11 | CCC(C)(C)C(=O)N1CCC(CO)(CCOc2ccccc2)CC1 [RU-0220454] | 811 (31) | Below Threshold | Below Threshold | 
12 | CO[C@H]1CN(Cc2cccc(Cl)c2Cl)CC[C@H]1N [RU-0221236] | Below Threshold | Below Threshold |  | activation at 10 µM [2, 3]: 5.13%
13 | Cc1ccc(CN2CCN(Cc3ccccc3CO)CC2)n1-c1cccnc1 [RU-0221380] | 922 (13) | 16.89 (11) | Below Threshold | 
14 | O=C(NC1CC1)C1CCCN(C2CCN(c3ccc(C(F)(F)F)cn3)CC2)C1 (stereo not shown) [RU-0221613] | Below Threshold | Below Threshold |  | activation at 10 µM [2, 3]: 5%
15 | c1ccc(-c2nc[nH]c2-c2ccccc2Cn2cccn2)cc1 [RU-0222072] |  |  |  | RFU Score (10 μM) [1]: 425; activation at 10 µM [2]: 5.05%
16 | CC(C)c1nnc(CN2C[C@H]3CC=CC[C@H]3C2)o1 [RU-0223925] | 1120 (6) | 18.94 (8) |  | activation at 10 µM [2, 3]: 11.2%
17 | CN1CCC2(CC1)CN(C(=O)COCC1CCCO1)CCCN2C (stereo not shown) [RU-0224115] | 900 (17) | Below Threshold | Below Threshold | 
18 | Cc1c(-c2ccccc2F)[nH]c2ccc(CNS(=O)(=O)N3CCCC3)cc12 [RU-0225107] | 805 (34) | Below Threshold |  | activation at 10 µM [2, 3]: 5.07%
19 | O=C(c1ccc2c(c1)OCO2)C1CCCN(C(=O)c2cnn(Cc3ccccc3)c2)C1 (stereo not shown) [RU-0227215] | 1310 (4) | 27.39 (4) | Below Threshold | 
20 | OCc1ccccc1-c1ccc(NC2CCCC2)nn1 [RU-0227303] | Below Threshold | 13.68 (18) | Below Threshold | 
21 | Cc1cc(C)c2[nH]c(=O)c(CN3CCC4(CCCNC4)C3)cc2c1 (stereo not shown) [RU-0227342] |  |  |  | RFU Score (10 μM) [1]: 591; activation at 10 µM [2]: 11%
22 | Cc1cc(C)c2[nH]c(=O)c(CN3CCC4(CCOCC4)CC3)cc2c1 [RU-0227345] |  |  |  | RFU Score (10 μM) [1]: 384; activation at 10 µM [2]: 3.6%
23 | CC(=O)NCCC1CCCCN1Cc1cc2cc(C)cc(C)c2[nH]c1=O (stereo not shown) [RU-0227648] |  |  |  | RFU Score (10 μM) [1]: 494; activation at 10 µM [2]: 7.48%
24 | O=C(c1[nH]cnc1-c1ccccc1)N1CC[C@H](CO)[C@H](O)C1 [RU-0227868] |  |  |  | RFU Score (10 μM) [1]: 505; activation at 10 µM [2]: 7.88%

Row | Compound | RFU Score Threshold ≥ 800 [1] | Fluorescence Z Score Threshold ≥ 10 [1] | NPA Score Threshold ≥ 5.0 (normalized percent activation) [1] | further results
25 | COc1cccc(C2CCN(c3ncnc4c3CCNC4)C2)c1OC (stereo not shown) [RU-0227959] | 815 (30) | Below Threshold | Below Threshold | 
26 | Cc1cc(C)c2[nH]c(=O)c(CN3CCOC(CN)C3)cc2c1 (stereo not shown) [RU-0228809] |  |  |  | RFU Score (10 μM) [1]: 341; activation at 10 µM [2]: 1.81%
27 | CC1CCN(C(=O)COc2ccccc2-c2[nH]cnc2-c2ccccc2)CC1 [RU-0228904] |  |  |  | RFU Score (10 μM) [1]: 590; activation at 10 µM [2]: 10.9%
28 | Cc1ccccc1N1CCN(C(=O)c2ccc(C#CC(C)(C)O)o2)C(C)C1 (stereo not shown) [RU-0228950] | 921 (14) | 15.58 (13) | Below Threshold | 
29 | OCc1ccc(CN2CCCC(COc3ccccc3F)C2)o1 (stereo not shown) [RU-0229103] | 1980 (2) | 46.85 (2) |  | activation at 10 µM [2, 3]: 6.82%
30 | COc1ccc(-n2c(Cc3cccnc3)n[nH]c2=O)c(C)c1 [RU-0230205] | 1060 (8) | 19.99 (7) | Below Threshold | 
31 | CN(C)CCC1CN(C(=O)c2[nH]cnc2-c2ccccc2)CCO1 (stereo not shown) [RU-0231240] |  |  |  | RFU Score (10 μM) [1]: 596; activation at 10 µM [2]: 11.1%
32 | COc1ccc(-c2[nH]cnc2-c2ccccc2)cc1CN(C)C [RU-0231652] |  |  |  | RFU Score (10 μM) [1]: 299; activation at 10 µM [2]: 0.62%
33 | Cc1ccccc1OCCCN(C)c1nc(-c2cccnc2)nc2c1CNC2 [RU-0231961] | Below Threshold | Below Threshold |  | activation at 10 µM [2, 3]: 5.5%
34 | CCCc1ccc(-c2ccc(C(=O)N3C[C@@H](N)C[C@H]3C(=O)NC)cc2)cc1 [RU-0232318] | 804 (35) | Below Threshold | Below Threshold | 
35 | Cc1nc[nH]c1CN1CCOc2c(O)cc(-c3cccc(Cl)c3)cc2C1 [RU-0236543] | 821 (27) | Below Threshold | Below Threshold | 
36 | O[C@@H]1CNCC[C@H]1CNCc1ccccc1-c1ccccc1 [RU-0236855] | 810 (32) | Below Threshold | Below Threshold | 
37 | CSc1ncc(C(=O)NCc2cc(C)cc3c(C)c(C)[nH]c23)cn1 [RU-0239453] | 809 (33) | Below Threshold | Below Threshold | 
38 | CCC(OC)C(=O)NCc1ccc2[nH]c(-c3ccccc3F)c(C)c2c1 (stereo not shown) [RU-0244068] | 836 (26) | Below Threshold | Below Threshold | 
39 | Cc1ccc(OCCN(C)Cc2ccncc2)c(C)c1 [RU-0244443] | 818 (29) | Below Threshold | Below Threshold | 
40 | O=C(N[C@H]1CN[C@H](C(=O)NCCCn2ccnc2)C1)c1cccc(Cl)c1 [RU-0245007] | 993 (12) | 14.31 (17) | Below Threshold | 
41 | c1ccc(CC2CCN(Cc3cc4n(n3)CCCNC4)C2)cc1 (stereo not shown) [RU-0246723] | 873 (20) | 10.91 (23) | Below Threshold | 
42 | Cc1nc(CCN)cc(N2CCCC2c2nonc2C)n1 (stereo not shown) [RU-0250475] | 879 (19) | Below Threshold | Below Threshold | 
43 | CN(Cc1cccc2ncccc12)CC1CCOC1 (stereo not shown) [RU-0252111] | 1010 (10) | 16.48 (12) | Below Threshold | 
44 | CCCc1nc(C)c(CNC(=O)C2CCOC2)s1 (stereo not shown) [RU-0254439] | Below Threshold | 14.37 (16) | Below Threshold | 
45 | CCOC(=O)c1n[nH]cc1[C@@H]1C[C@H](NC(C)=O)C[C@H](CC(C)C)O1 [RU-0257787] | Below Threshold | 12.09 (21) | Below Threshold | 
46 | Cc1cccc(-c2ncc(CN3CCCC(Cn4ccnc4C)C3)cn2)c1 (stereo not shown) [RU-0261573] | 857 (21) | 10.31 (24) | Below Threshold | 
47 | CCNC(=O)N1CCc2c(cnc(C)c2-c2noc(-c3ccc(C)cc3)n2)C1 [RU-0265172] | 840 (25) | 18.70 (9) | Below Threshold | 
48 | N-(3-isoquinolin-5-ylbenzyl)propanamide [RU-0248250] | 1000 (11) | 24.29 (5) | Below Threshold | EC50 ([1]; read-out: Measured EC50, compounds validated in secondary screen, C2C12): > 40 µM
